Laboratory results reported in patent publication US11339442B2, “Methods of detecting insulator dysfunction and oncogene activation for screening, diagnosis and treatment of patients in need thereof” (THE GENERAL HOSPITAL CORPORATION, priority 2015, dated 2022).
Entries after “also recorded” stand apart in the source; their conditions may differ. Like-named read-outs stand apart in the source and are kept apart here.

Key:
Factor VII = conditions: LNP siRNA systems containing the lipid; cited from earlier work
[1] = tested on: CpG in the CTCF motif of the boundary adjacent to PDGFRA; assay: DNA methylation quantification (bisulfite sequencing), BT142 gliomaspheres treated with demethylating agent; assay type: cell-based, human; conditions: 5 μM 5-azacytidine for 8 days
Method: DNA Methylation Quantification-DNA methylation was analyzed in two ways. For gliomaspheres, genomic DNA was isolated via QiaAmp® DNA minikit (Qiagen®) and subjected to Bisulfite Conversion (EZ DNA Methylation GoldTM Kit-Zymo Research). Bisulfite converted DNA specific to the CTCF binding site (defined by JASPAR^40) in the boundary adjacent to PDGFRA was amplified using the following primers [NT]

CTCF = CTCF occupancy ChIP qPCR at the boundary adjacent to PDGFRA, BT142 gliomaspheres; assay type: cell-based, human; conditions: 5 μM 5-azacytidine for 8 days
Method: Chromatin Immunoprecipitation-Chromatin Immunoprecipitation (ChIP) and sequencing (ChIP-Seq) was performed as described previously^32. Briefly, cultured cells or minced tissue was fixed in 1% formaldehyde and snap frozen in liquid nitrogen and stored at -80° C. for at least overnight. […] ChIP DNA was used to generate sequencing libraries by end repair (End-ItTM DNA repair kit, Epicentre), 3' A base overhang addition via Klenow fragment (NEB), and ligation of barcoded sequencing adapters. Barcoded fragments were amplified via PCR. […] Occupancy of the CTCF site in the boundary element adjacent to the PDGFRA locus was quantified by ChIP qPCR, using the following primers: […] CTCF peak intensity was further normalized as ratio to two invariant peaks, at PSMB1 and SPG11, using the following primers: PSMB1[NT]

[2] = tested on: acute leukemia of all cell types in relapse; conditions: end of trial, cited from earlier work
newly diagnosed AML = conditions: cited from earlier work
PDGFRA = conditions: BT142 gliomaspheres, 5 μM 5-azacytidine for 8 days
[3] = preclinical studies; cited from earlier work
FIP1L1-PDGFRA = target: T1, FIP1L1-PDGFRA (Homo sapiens, UniProt P16234); conditions: FIP1L1-PDGFRA versus BCR-ABL; cited from earlier work
T1 construct: the other entry of the earlier key: FIP1L1 (Q6UN15, Pre-mRNA 3'-end-processing factor FIP1)
T1 sequence (P16234 593-1089 limits assumed): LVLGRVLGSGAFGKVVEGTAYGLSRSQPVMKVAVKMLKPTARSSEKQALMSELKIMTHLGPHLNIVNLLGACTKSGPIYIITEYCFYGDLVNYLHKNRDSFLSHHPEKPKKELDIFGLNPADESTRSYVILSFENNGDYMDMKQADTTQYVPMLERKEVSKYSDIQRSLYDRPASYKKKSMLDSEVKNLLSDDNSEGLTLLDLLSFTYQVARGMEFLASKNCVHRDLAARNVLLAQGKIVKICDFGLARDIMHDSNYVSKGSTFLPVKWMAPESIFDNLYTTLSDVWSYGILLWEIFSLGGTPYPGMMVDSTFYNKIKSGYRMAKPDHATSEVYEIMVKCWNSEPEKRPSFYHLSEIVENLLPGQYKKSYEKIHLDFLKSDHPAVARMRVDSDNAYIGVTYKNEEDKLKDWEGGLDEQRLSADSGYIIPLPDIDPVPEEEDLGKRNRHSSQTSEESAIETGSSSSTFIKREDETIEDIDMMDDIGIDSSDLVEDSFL

[4] = compared with aza; cited from earlier work
GSC6 gliomaspheres = assay: Cell growth assay (CellTiter-Glo), GSC6 cells expressing CRISPR; assay type: cell-based, human; conditions: 1 μM Dasatinib or 500 nM Crenolanib
Method: Cell Growth Assay—For the cell growth assay, 2,500 dissociated viable GSC6 cells expressing CRISPR and either GFP or Insulator targeting sgRNA (see above) were plated in […], of media in an opaque-walled tissue culture 96 well plate, in 1 μM Dasatinib, 500 nM Crenolanib, or equivalent DMSO (1:10,000) as a vehicle control. Cell growth was analyzed at days 3, 5, and 7 for Dasatinib, or days 3, 7, and 10 for Crenolanib, using CellTiter-Glo® reagent (Promega™) following the manufacturer's protocol. Data was normalized across days using an ATP standard curve.

MDS (RAEBT) = conditions: patients with RAEBT, 3-day course 15 mg/m^2 daily; cited from earlier work
advanced leukemia or MDS = conditions: cited from earlier work
CMLs in transformation = conditions: first 13 patients, 100 mg/m^2 over 6 h every 12 h for 5 days; cited from earlier work
[5] = preclinical in vitro studies; cited from earlier work
PDGFRA insulator = assay: ChIP-qPCR for CTCF and H3K9me3 after dCas9 / dCas9-KRAB recruitment, HEK293 cells; assay type: cell-based
Method: Applicants performed these experiments at the PDGFRA insulator in HEK293 cells (FIG. 16A, Top). […] HEK293 cells were seeded into 100 mm cell culture dishes two days before transfection and grown to 60-70% confluency. […] of either dCas9 or dCas9-KRAB constitutive expression vector (JDS286 and Addgene Plasmid #50919 respectively) (FIG. 18) and 1 ug of guide RNA expression vector (pXPR1_noCas, Broad GPP) (FIG. 19) were mixed in 450ul OptiMEM. 27ul of FugeneHD was added and tubes were vortexed for two times one second, incubated at room temp for ten minutes and added dropwise to cell culture dishes.
Cells were harvested three days after transfection and crosslinked in 1% formaldehyde at 37 C for 10 min. ChIP-qPCR was performed as previously described. Briefly, cells were lysed on ice, sonicated in 0.3% SDS for 5 minutes total time at ˜10W power, incubated with the relevant antibody overnight at 4C with rotation after dilution to 0.1% SDS. Antibody-bound chromatin was isolated using protein G magnetic beads. Bound complex is washed several times and eluted off the beads at 65C for 1h with shaking. Eluted complex is treated with RNase for 30 min at 37C and protinase K for 3h at 63C while crosslinks are reversed concurrently. IP DNA is cleaned up using a 2× Ampure XP DNA bead cleanup as per manufacturer's instructions.

OLIG2 insulator = assay: as above; assay type: cell-based

## 1,2-dilinoleyloxy-keto-N,N-dimethyl-3-aminopropane [DLinKDMA]
Factor VII
  gene silencing potency in hepatocytes in vivo (rank series): DLinKC2-DMA>DLinKDMA>DLinDMA>>DLinDAP

## Nc1ncn([C@@H]2O[C@H](CO)[C@@H](O)[C@H]2O)c(=O)n1 [5-aza, 5-azacytidine]
[1]
  reduction of methylation of the CTCF motif: ~2.5 fold
CTCF
  increase of CTCF occupancy: ~1.7 fold
[2]; adult patients with acute leukemia in relapse
  overall response rate: 9.2%
[2]
  patients achieving complete remission: nine
  patients achieving partial remission: two
Newly diagnosed AML; 15 adult patients, 75 mg/m^2 daily s.c. for 7 days every 4 weeks
  patients with complete or partial remission: Eight
Newly diagnosed AML; in vivo
  average number of cycles to remission: three
Newly diagnosed AML; patients who achieved complete remission
  duration of response, average: 8 (range, 6-13) cycles
Newly diagnosed AML; patients who achieved partial remission
  duration of response, average: 3 (range, 2-3) cycles
PDGFRA
  down-regulation of PDGFRA expression: ~5 fold

## C[C@@H](Nc1nc(N[C@H](C)C(F)(F)F)nc(-c2cccc(Cl)n2)n1)C(F)(F)F [AG-881]
[3]
  blood-brain barrier penetration: fully penetrate the blood-brain barrier

## CCCCC/C=C\C/C=C\CCCCCCCC(=O)OCC(CN(C)C)OC(=O)CCCCCCC/C=C\C/C=C\CCCCC (stereo not shown) [DLinDAP, 1,2-dilineoyl-3-dimethylammonium-propane]
Factor VII
  gene silencing potency in hepatocytes in vivo (rank series): DLinKC2-DMA>DLinKDMA>DLinDMA>>DLinDAP

## CCCCC/C=C\C/C=C\CCCCCCCCOCC(CN(C)C)OCCCCCCCC/C=C\C/C=C\CCCCC (stereo not shown) [DLinDMA, 1,2-dilinoleyloxy-3-N,N-dimethylaminopropane]
Factor VII
  gene silencing potency in hepatocytes in vivo (rank series): DLinKC2-DMA>DLinKDMA>DLinDMA>>DLinDAP

## CCCCC/C=C\C/C=C\CCCCCCCCC1(CCCCCCCC/C=C\C/C=C\CCCCC)OCC(CCN(C)C)O1 (stereo not shown) [DLinKC2-DMA, 1,2-dilinoleyl-4-(2-dimethylaminoethyl)-[1,3]-dioxolane]
Factor VII
  gene silencing potency in hepatocytes in vivo (rank series): DLinKC2-DMA>DLinKDMA>DLinDMA>>DLinDAP

## Cc1ccc(NC(=O)c2ccc(CN3CCN(C)CC3)cc2)cc1Nc1nccc(-c2cccnc2)n1 [Imatinib]
FIP1L1-PDGFRA
  IC50 lower as compared to BCR-ABL: 250 fold

## O=c1ncccn1[C@@H]1O[C@H](CO)[C@@H](O)[C@H]1O [Zebularine]
[4]
  stability: more stable than aza

## CC1(COc2ccc3c(c2)ncn3-c2ccc3cccc(N4CCC(N)CC4)c3n2)COC1 [crenolanib]
GSC6 gliomaspheres
  effect on the growth advantage of insulator CRISPR gliomaspheres: abrogated
GSC6 gliomaspheres; listed as Crenolanib
  effect on the growth advantage of insulator CRISPR gliomaspheres: eliminated

## Nc1ncn([C@H]2C[C@H](O)[C@@H](CO)O2)c(=O)n1 [decitabine, 5-aza-2′-deoxycytidine]
MDS (RAEBT)
  percentage of responders: 70%
Advanced leukemia or MDS; 37 patients with AML
  complete response (CR): 14%
  partial response (PR): 8%
Advanced leukemia or MDS; comparison group to the higher doses / longer cycles
  response rate: 45%
Advanced leukemia or MDS; five patients with CML
  patients achieving CR: two
  patients achieving PR: two
Advanced leukemia or MDS; higher doses (20 mg/m^2 for 10 days) and longer treatment cycles (15 mg/m2 for 20 days)
  response rate: 11%
Advanced leukemia or MDS; in vivo
  patients in whom only one cycle of therapy was required to achieve a CR: eight of nine
Advanced leukemia or MDS; overall, 48 patients
  objective responses: 33%
Advanced leukemia or MDS; seven patients with MDS
  complete response (CR): 28.5%
  patients achieving PR: two
CMLs in transformation
  adverse effect: severe prolonged myelosuppression

## Cc1cn(-c2cc(NC(=O)c3ccc(C)c(Nc4nccc(-c5cccnc5)n4)c3)cc(C(F)(F)F)c2)cn1 [nilotinib]
[5]
  potency relative to imatinib (factor): 20 to 50

## dCas9: enzymatically inactive CRISPR enzyme recruited by guide RNA to a CTCF insulator
PDGFRA insulator
  CTCF binding at the PDGFRA insulator: potently disrupts CTCF binding; also recorded: can reduce CTCF binding
OLIG2 insulator
  CTCF binding at the OLIG2 insulator: can disrupt CTCF binding; also recorded: can reduce CTCF binding
